US4829086A, “Soft β-adrenergic blocking agents” (priority 1985, dated 1989)
Where a name gives a salt, the structure may show the parent alone. Read-outs that look alike come from different tables or passages of the source.

Experiments:
[1] = system: blood pressure response to isoproterenol; assay: Blood pressure response to isoproterenol in rats; format: in vivo, male Spraque-Dawley rats; settings: 6 mg/kg i.p.; 10 minutes after isoproterenol
Text: Initial Drug Screening Protocol. Thirty-two male Spraque-Dawley rats (Blue Spruce Farms) initially weighing 300-450 gm were divided into seven different groups, each for a different drug to be tested: 12(n=4), 14(n=4), 17(n=5), 13(n=4) and 18(n=3), corresponding to the designated compounds 12, 14, 17, 13 and 18 (number of animals), respectively. The other two groups were controls (n=8, isoproterenol alone pretreated with carrier) and those treated with a known β-blocker, dl-propranolol (n=3). Ech animal was anesthetized with sodium pentobarbital (45 mg/kg) and the carotid artery was cannulated with PE-50 tubing. The cannula was subcutaneously threaded around the neck and exteriorized dorsally between the shoulder blades. Th cannula was filled with a heparin solution (300 μg/mL) and sealed with a solid 22 gauge stylet. The animals were housed in individual stainless steel cages, and two days were allowed for recovery from the surgery. Food and water were provided ad libitum. On the day of the experiment, the blood pressure and heart rate of each rat were monitored with a pressure transducer (Narco-Bio model P-1000) and the data recorded on a four-channel physiograph (Narco-Bio systems Marck IV). One hour was allowed as an equilibration period before any drugs were administered. All beta blockers were administered intraperitoneally at a dose of 6 mg/kg. Compounds 12 and 14 and dl-proranolol were dissolved in normal saline while compounds 13, 17 and 18 were dissolved in an ethanol: water solution (3:1). Depending on the trial, controls were administered the appropriate carrier. One hour after administration of the blocker, isoproterenol (Isuprel®, Wintrop Laboratories) was administered subcutaneously at a dose of 25 μg/kg. Blood pressures and heart rate also were recorded 3, 5, 10, 15, 20, 30, 45 and 60 minutes after isoproterenol administration. Both control and experimental animals were unrestrained and free moving in their home cage throughout the experiment. […] However, significant differences in the mean heart rate response amoung the 7 groups were observed: *p<0.005;**p<0.025. Comparisons between groups were made by the Newman-Keuls procedure with significance set at the 95% confidence interval. […] All data are shown as mean±standard error of the mean.
Symbols are the same as those described for FIG. 1. […] Data are shown as mean±standard error of the mean.

[2] = Enzymatic hydrolytic cleavage in human plasma; format: in vitro ADME; settings: for half-life at 1000 µM: human, plasma
Description: Analytical Methods. A high pressure liquid chromatography (HPLC) method was developed for the determination of the rate constants. The chromatographic analysis was performed in a system consisting of Waters Associates Model 600-A Solvent Delivery System, Model U-6K Injector and Model 440 Dual Channel Absorbance Detector operated at 254 and 280 nm. A 30 cm×3.9 mm (internal diameter) reverse phase μBondpack C18 column (Waters Associates), operated at ambient temperature, was used for all separations. When plasma samples were analyzed, the column was protected with a 2.3 cm×3.9 mm (internal diameter) Guard Column (Waters) packed with μBondpack C18/Corasil packing material. The mobile phase used for the separation of 17 and its degradation product, 5, consisted of water, 1-hexane sulfonic acid in acetic acid (B-6 reagent, Waters), 0.1M triethanolamine and methanol (100:1:100:799). […] For the separation of compounds 10-16 and 18 and their degradation product 5, a mobile phase consisting of water, 1-hexane sulfonic acid in acetic acid (B-6 reagent, Waters), 0.1M triethanolamine and methanol (390:1:10:599) was used.
Determination of the Hydrolytic Rate Constants in Aqueous Solutions. A 0.01M phosphate buffer and 0.01N sodium hydroxide solution were prepared from freshly distilled deionized water. This ionic strength was maintained at 0.1M with sodium chloride. The pH of the phosphate buffer was determined at 37.0° C. with a pH meter standardized at this temperature. For determination of the hydrolytic rate constants, a fresh concentrated solution of the ester in methanol was added to the hydrolytic medium previously equilibrated to the desired temperature and mixed thoroughly to result in an initial concentration of about 5×10^-4 mol. liter^-1. All reactions were run under pseudo first order conditions. Samples of 25 μL were injected into the column at various time intervals and the pseudo first order rate constants were determined from disappearance of the compound by linear regression of natural logarithm of the peak height versus time plots. The half-life and standard error of the rate constant were calculated for each run.
Determination of the Enzymatic Hydrolytic Cleavage Rates in Human Plasma. The freshly collected plasma used was obtained from the Civitan Regional Blood Center, Inc. (Gainesville, Fla.) and contained about 80% plasma diluted with anticoagulant citrate phosphate dextrose solution, U.S.P. The plasma was stored in a refrigerator and used within one week from the date it was collected.
A portion of 50 μL of a freshly prepared solution of the compound in methanol was added to 10 mL plasma, previously equilibrated at 37.0° C. in a water bath, and mixed thoroughly to result in an initial concentration of 1×10^-3 mol. liter^-1. One mL samples of plasma were withdrawn from the test medium, mixed immediately with 4.0 mL ice cold 95% v/v ethanol, centrifuged and the supernatant analyzed by HPLC. The first order hydrolytic rate constant was determined as before in the aqueous solutions and the results are listed in TABLE II below.

[3] = system: heart rate response to isoproterenol (β-adrenergic); assay: Cardiovascular experiments in dogs: blockade of isoproterenol heart rate response; format: in vivo, mongrel dogs
Description: Method. Healthy, mongrel dogs were anesthetized with a combination of morphine sulfate (2.0 mg/kg, subcutaneously) followed in 20 minutes with pentabarbital sodium (15 mg/kg, intravenously). Supplemental pentabarbital was given as necessary. A femoral vein was catheterized with polyethylene tubing to the level of the heart for injecting drug solutions. A polyethylene tube filled with heparinized saline was inserted through the femoral artery and advanced to the thoracic aorta for the measurement of arterial pressure. The left carotid artery was cannulated with a Millar® transducer-tip catheter for measurement of left ventricular pressure (LVP). The rising slope of the LVP signal was differentiated to give dP/dt, an estimate of myocardial contractility. Heart rate was determined via a Grass cardiotachometer triggered by the R wave of the lead II EKG. All variables were recorded on a Grass polygraph.
Dose-response curves were constructed for each experimental variable to graded i.v. doses of the β-adrenergic agonist, isoproterenol. A period of 3-5 minutes was allowed after each injection for variables to return to base-line. Following this, one of the four experimental β-adrenergic blocking agents was given i.v. over a one-minute period. Abbreviated dose-response curves (2-3 dose points) were again constructed to isoproterenol at 15, 30, 45, 60, 75 and 90 minutes after the administration of the test blockers. Using a 50-beat per minute (bpm) increase in heart rate as criteria, the degree of blockade was determined by dividing the dose of isoproterenol needed to produce a 50 bpm increase at various times following administration of an antagonists by the dose needed for this effect during the control period. The doses of the experimental β-adrenergic antagonists given were determined from previous experiments to produce an approximate two- or four-fold blockade of the heart rate response to isoproterenol.

[4] = 1 mg/kg i.v., 15 minute measurements

## CC(C)NCC(O)COc1ccc(CC(=O)OC2CC(C)(C)CC(C)(C)C2)cc1 (stereo not drawn) [Compound 17, 3,3,5,5-Tetramethylcyclohexyl 4-(2-hydroxy-3-isopropylamino)propoxyphenylacetate oxalate 3/4 hydrate]
[1]
  mean change in blood pressure at 10 minutes vs compound 18 group: significantly different from the group treated with compound 18
[2]; 37.0 ± 0.1° C., ± SEM
  Observed first order hydrolytic rate constant k: 0.566 ± 0.027 min⁻¹
[2]; 37.0 ± 0.1° C., read-out: Half-life t1/2
  half-life at 1000 µM: 1.22 min
[2]; read-out: in vitro plasma half-life
  half-life at 1000 µM: ~1 min
[3]; 1 mg/kg i.v.
  Duration, Mean (time at which response to isoproterenol had returned to control levels): ~ 70 min
  Duration, Range (time at which response to isoproterenol had returned to control levels): 45 to 90 min
[3]; [4]
  Maximal blockade, Mean (time necessary to reach maximal blockade): 40 min
  Maximal blockade, Range (time necessary to reach maximal blockade): 30 to 60 min
[3]; i.v.
  duration of action: much more variable and generally longer
